# Test results: paper PMC7545998, “A snake toxin as a theranostic agent for the type 2 vasopressin receptor” (Theranostics, 2020)
# Tests used:
# [1] = system: rat model of hyponatremia; assay: Rat model of dDAVP-induced hyponatremia; type: in vivo
# Experimental: Hyponatremia was induced in rats by continuous infusion of 10 ng/h of dDAVP and water gavage (Figure 2A). At day 0 (D0), the basal plasma sodium concentration was 145 ± 6 mM. […] In controls, plasma sodium decreased to 134 ± 1 mM and 125 ± 3 mM at D3 and D4, respectively. […] The concentration of 10 µg/kg increased plasma sodium by 12 mmol/l/24 h. This is considered as the highest acceptable correction rate in humans in order to avoid risk of osmotic demyelination. Rat weights were monitored during the experiment, each rat being its own reference.
# Specific pathogen-free adult male Sprague-Dawley rats (body weight between 445 and 525 grams) were from Janvier laboratories (Le Genest St. Isle, 53941, Saint Berthevin Cedex, France) and acclimatized to the animal house conditions for 1 week. […] A stock […] solution of desmopressin (dDAVP) was prepared by dissolving 5 mg of drug in physiological saline. dDAVP was administered using subcutaneous ALZET osmotic mini-pumps (model 2002, DURECT Corporation, Cupertino, CA95014, USA) previously filled with a solution of dDAVP (pumping rate of 0.47±0.02 µL/h and mean fill volume of 233.6±4.7 µL). The dose of dDAVP (10 ng/h) was determined in preliminary experiments. Buprenorphine (Centravet, 03120 Lapalisse, France) was administered once a day at a dose of 0.02 mg/kg, s.c. from day 0 to day 3 in order to suppress post-operative pain. Water gavage (30 mL/kg) was performed 2 times per day (at 9 am and 4 pm) in the first 3 days following ALZET pump implantation, and at 9 am at day 4. Body weight was recorded every day in order to adjust for the volume of water to be administered. Rats had free access to standard rat chow, as well as water in their cages. […] On days 0, 2, 3 and 4, at 9 am, 400 µL of blood was collected from isoflurane- anesthetized rats from the tail vein with lithium heparinate (Sanofi-Aventis, Gentilly, France). Samples were centrifuged (4 °C, 2000 g, 5 min). Sodium was quantified by the Central Laboratory of the ENVT, Toulouse, France, on a VITROS 250/350/950/ 5, 1 FS, 4600 and integrated system VITROS 5600 (Ortho-Clinical Diagnostics, Buckinghamshire, United Kingdom). Multiple factor ANOVA followed by Tukey's test were used to test for significance. A P value < 0.05 was considered significant.
# Sprague-Dawley rats = assay: Diuresis and urine osmolality with daily i.p. injection of 3 nmol/kg for 4 days; type: in vivo, rat; settings: daily i.p. 3 nmol/kg; for Diuresis Average / Excretion Average / Osmolarity Average: N=5
# Experimental: We injected this dose daily for 4 days and measured urine volume and osmolality.
# Sprague-Dawley rats are aged between 6 and 12 weeks, between 237 g and 545 g and were use up to 3 times. […] Urine was collected at various times, and centrifuged for 30 min at 20,800 g. Urine osmolality was determined with an osmometer (Knauer, Berlin, Germany). For the pharmacokinetic experiments, a catheter was implanted in the rat jugular vein five days before the experiment. Blood samples of 400 μl were taken at various times under heparin conditions. Blood was centrifuged at 2000 g for 5 min at 4 °C and plasma was frozen at -20 °C.
# [2] = system: porcine kidney epithelial cells LLC-pk1; assay: Confocal imaging of endogenous V2R in LLC-pk1 cells; type: cell-based; settings: 3.4 µM, 30-min pre-incubation
# Experimental: In cells endogenously expressing V2R, such as porcine kidney epithelial cells LLC-pk1, labeling of V2R with AFDye-488-MQ1 and Cy5.5-MQ1 (100 nM) was performed with either fresh or PFA-fixed cells (Figures 7A and B). […] In the pathophysiological context, three renal cancer cell lines (CAKI-2, ACHN and A498 [38]) known to express V2R were tested. […] The presence of V2R, at the cell membrane level, fluctuated as a function of cell density and the number of cell divisions, whatever the cell line used. […] To our knowledge, this is the first specific ligand labeling of V2R in non-permeabilized cancer cells.
# Freshly dissociated CHO, LLC-PK1 or renal cancer cell lines expressing vasopressin receptors were seeded on 12-mm glass coverslips pre-coated with poly-ornithine, cultured for 48 h before incubation in DMEM, 0.2 mg/mL BSA, 25 mM HEPES, pH 7.4 for 1 h at 12°C or 30 min at 22 °C with fluorescent analogues in the absence or presence of non-fluorescent ligands (30-min pre-incubation). After 3 washes with cold PBS, the cells were finally fixed in 4% PFA overnight at 4 °C and mounted with Mowiol. The fluorescent cells were imaged using a Zeiss LSM510 Meta confocal microscope equipped with a ×63 (NA 1.4) oil immersion objective. For excitation, available laser rays were 488 and 633 nm and emission signals were collected in multitracking mode with appropriate band pass filters. […]
# [3] = system: 156 other GPCRs (including V1aR, V1bR and OTR); settings: at µM concentrations; cited from earlier work
# Text: Named mambaquaretin (MQ1), this peptide was isolated from mamba snake venom.
substance,measurement,setting,value
mambaquaretin [MQ1],plasma sodium,"[1]; 10 µg/kg ([…]) s.c. on days 2-4, D3",145 ± 3 mM
same,plasma sodium,"[1]; 10 µg/kg ([…]) s.c. on days 2-4, D4",148 ± 2 mM
same,plasma sodium,"[1]; 100 µg/kg (16 nmol/kg) s.c. on days 2-4, D3",146 ± 2 mM
same,plasma sodium,"[1]; 100 µg/kg (16 nmol/kg) s.c. on days 2-4, D4",154 ± 2 mM
same,half-life of diuresis decrease,Sprague-Dawley rats; day 1,1.6 h
same,Diuresis Average,"Sprague-Dawley rats; day 1, 24-h period",6.3 mL/h/kg
same,Excretion Average,"Sprague-Dawley rats; day 1, 24-h period",1919 µOsm/h/kg
same,Osmolarity Average,"Sprague-Dawley rats; day 1, 24-h period",328 mOsm/kg H2O
same,half-life of diuresis decrease,Sprague-Dawley rats; day 2,1.3 h
same,Diuresis Average,"Sprague-Dawley rats; day 2, 24-h period",5.9 mL/h/kg
same,Excretion Average,"Sprague-Dawley rats; day 2, 24-h period",1820 µOsm/h/kg
same,Osmolarity Average,"Sprague-Dawley rats; day 2, 24-h period",317 mOsm/kg H2O
same,half-life of diuresis decrease,Sprague-Dawley rats; day 3,1.3 h
same,Diuresis Average,"Sprague-Dawley rats; day 3, 24-h period",6.00 mL/h/kg
same,Excretion Average,"Sprague-Dawley rats; day 3, 24-h period",1805 µOsm/h/kg
same,Osmolarity Average,"Sprague-Dawley rats; day 3, 24-h period",313 mOsm/kg H2O
same,half-life of diuresis decrease,Sprague-Dawley rats; day 4,1.6 h
same,Diuresis Average,"Sprague-Dawley rats; day 4, 24-h period",5.7 mL/h/kg
same,Excretion Average,"Sprague-Dawley rats; day 4, 24-h period",1940 µOsm/h/kg
same,Osmolarity Average,"Sprague-Dawley rats; day 4, 24-h period",326 mOsm/kg H2O
same,effect on labeling by AFDye-488-MQ1 and Cy5.5-MQ1,[2],inhibited the labeling
same,"affinity for 156 other GPCRs (including V1aR, V1bR and OTR)",[3],no affinity
